The structures appear in SMILES notation. Starred links: 1 amine or outer side, 2 acyl side, 3 side chain; linkers in the order of their positions; H or OH if unused. Positions of bridges follow the written chain, without caps; N, C: chain ends. Non-standard residues stand in square brackets, D forms with d. Residues, ends and D or L forms follow the SMILES beside them. *: point of attachment. hPhe(3-Cl-4-CF3) = N[C@@H](CCc1ccc(C(F)(F)F)c(Cl)c1)C(=O)O; X19 = CC(C)(C)Oc1cc(CC[C@H](N[*:1])C(=O)[*:2])cc(Cl)c1Cl; X52 = CN([C@@H](Cc1ccc(C#N)nc1)C(=O)[*:2])[*:1]; 3Oxa8azabicyclo(3.2.1)octane = C1CC2COCC1N2*; NMePhe(4-Me) = CN[C@@H](Cc1ccc(C)cc1)C(=O)O; NMeGly(cPent) = CN[C@H](C(=O)O)C1CCCC1; NMeGly(cBu) = CN[C@H](C(=O)O)C1CCC1; NMeCha = CN[C@@H](CC1CCCCC1)C(=O)O; NMeCba = CN[C@@H](CC1CCC1)C(=O)O; NMeChg = CN[C@H](C(=O)O)C1CCCCC1; NMeD = CN[C@@H](CC(=O)O)C(=O)O; NMeL = CN[C@@H](CC(C)C)C(=O)O; NMeV = CN[C@H](C(=O)O)C(C)C; d(β3hA) = C[C@@H](N)CC(=O)O; NMeA = CN[C@@H](C)C(=O)O; Piperidide = C1CCN(*)CC1; Pyrrolidide = C1CCN(*)C1; Ac5c = NC1(C(=O)O)CCCC1; Ac4c = NC1(C(=O)O)CCC1; Ac3c = NC1(C(=O)O)CC1; Sar = CNCC(=O)O

In general, IC50 refers to the midpoint of a concentration-inhibition curve.

Test [1] addresses T1, Kras and SOS1 (biotin-tagged human Kras loaded with GDP, His-tagged human SOS1) (Homo sapiens, UniProt P01116, G12D).
T1 construct: made in house; host or cells: E. coli (stated for Kras only)
The test can be described thus: Protein-protein interaction inhibition between Kras and SOS1 (KrasGl2D-SOS PPI) using AlphaScreen. Type of test: binding. The conditions noted are these: AlphaScreen; biotin-tagged human Kras loaded with GDP, His-tagged human SOS1; read-out: KRAS G12D-SOS PPI IC50. In short, it runs like this: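 Energy transfer from nickel-chelate donor beads bound to His-SOS1 to streptavidin acceptor beads bound to biotin-Kras, expressed in E. coli and loaded with GDP after purification, was monitored. Donors were excited at 680 nm; singlet oxygen reaching acceptors gave emission read at 520-620 nm.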

The subject of test [2] is Human pancreatic cancer cell line AsPC-1. The test can be described thus: Measurement of AsPC-1 cell growth inhibition (AsPC-1 CGI). In kind it is cell-based. The note with it: 96 h. The method in brief: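 AsPC-1 cells in 15% FBS RPMI-1640 were exposed to test compound for 96 hours at 37° C, with CellTiter-Glo as endpoint.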

T1 sequence (P01116 1-188 isoform P01116-2 G12D): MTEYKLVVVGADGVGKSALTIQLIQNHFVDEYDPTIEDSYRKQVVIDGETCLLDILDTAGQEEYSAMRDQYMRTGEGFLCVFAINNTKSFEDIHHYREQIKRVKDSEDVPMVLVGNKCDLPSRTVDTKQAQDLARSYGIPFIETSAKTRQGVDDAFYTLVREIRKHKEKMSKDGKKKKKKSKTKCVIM

Take `CC[C@H](C)[C@@H]1NC(=O)[C@H](CC2CCC2)N(C)C(=O)C[C@@H](C(=O)N2CCCCC2)N(C)C(=O)[C@H](C(C)C)N(C)C(=O)C2(CCCC2)NC(=O)[C@@H]2CCCN2C(=O)[C@H](CCc2ccc(C(F)(F)F)c(Cl)c2)NC(=O)CN(C)C(=O)[C@H](CC2CCCCC2)N(C)C(=O)CN(C)C(=O)CN(C)C1=O` [Compound 911] ([NMeCba]I[Sar][Sar][NMeCha][Sar][hPhe(3-Cl-4-CF3)]P[Ac5c][NMeV][NMeD]-Piperidide; lactam N-11): the IC50 in test [1] is 4.5 nM; in test [2] it was 100 to 500 nM.
Regarding `CC[C@H](C)[C@@H]1NC(=O)[C@H](C)N(C)C(=O)C[C@@H](C(=O)N2CCCCC2)N(C)C(=O)[C@H](C2CCCCC2)N(C)C(=O)C2(CCCC2)NC(=O)[C@@H]2CCCN2C(=O)[C@H](CCc2cc(Cl)c(Cl)c(OC(C)(C)C)c2)NC(=O)CN(C)C(=O)[C@H](CC2CCCCC2)N(C)C(=O)CN(C)C(=O)CN(C)C1=O` [Compound 2082] ([NMeA]I[Sar][Sar][NMeCha][Sar][X19]P[Ac5c][NMeChg][NMeD]-Piperidide; lactam N-11), the concentration for half-maximal inhibition (IC50) was 41 nM in test [1] and more than 500 nM in test [2].
Take `CC[C@H](C)[C@@H]1NC(=O)[C@H](CC(C)C)N(C)C(=O)C[C@@H](C(=O)N2CCCC2)N(C)C(=O)[C@H](C(C)C)N(C)C(=O)C2(CCCC2)NC(=O)[C@@H]2CCCN2C(=O)[C@H](CCc2ccc(C(F)(F)F)c(Cl)c2)NC(=O)CN(C)C(=O)[C@H](Cc2ccc(C)cc2)N(C)C(=O)CN(C)C(=O)CN(C)C1=O` [Compound 1749] ([NMeL]I[Sar][Sar][NMePhe(4-Me)][Sar][hPhe(3-Cl-4-CF3)]P[Ac5c][NMeV][NMeD]-Pyrrolidide; lactam N-11): the IC50 is 0.74 nM in test [1] and 100 to 500 nM in test [2].
For `CC[C@H](C)[C@@H]1NC(=O)[C@H](CC(C)C)N(C)C(=O)C[C@@H](C)NC(=O)[C@H](C2CCCC2)N(C)C(=O)C2(CCC2)NC(=O)[C@@H]2CCCN2C(=O)[C@H](CCc2ccc(C(F)(F)F)c(Cl)c2)NC(=O)CN(C)C(=O)[C@H](Cc2ccc(C)cc2)N(C)C(=O)CN(C)C(=O)CN(C)C1=O` [Compound 1498] (cyclo([Ac4c][NMeGly(cPent)][d(β3hA)][NMeL]I[Sar][Sar][NMePhe(4-Me)][Sar][hPhe(3-Cl-4-CF3)]P)) the same measures were 1.7 nM and 100 to 500 nM.
Regarding `CC[C@H](C)[C@@H]1NC(=O)[C@H](CC(C)C)N(C)C(=O)C[C@@H](C(=O)N2CCCCC2)N(C)C(=O)[C@H](C2CCCCC2)N(C)C(=O)C2(CC2)NC(=O)[C@@H]2CCCN2C(=O)[C@H](CCc2ccc(C(F)(F)F)c(Cl)c2)NC(=O)CN(C)C(=O)[C@H](CC2CCCCC2)N(C)C(=O)CN(C)C(=O)CN(C)C1=O` [Compound 1845] ([NMeL]I[Sar][Sar][NMeCha][Sar][hPhe(3-Cl-4-CF3)]P[Ac3c][NMeChg][NMeD]-Piperidide; lactam N-11), the IC50 was 0.84 nM in test [1] and 100 to 500 nM in test [2].
With `CC[C@H](C)[C@@H]1NC(=O)[C@H](CC(C)C)N(C)C(=O)C[C@@H](C(=O)N2CCCCC2)N(C)C(=O)[C@H](C2CCCCC2)N(C)C(=O)C2(CCCC2)NC(=O)[C@H](Cc2ccc(C#N)nc2)N(C)C(=O)[C@H](CCc2ccc(C(F)(F)F)c(Cl)c2)NC(=O)CN(C)C(=O)[C@H](CC2CCCCC2)N(C)C(=O)CN(C)C(=O)CN(C)C1=O` [Compound 2169] ([NMeL]I[Sar][Sar][NMeCha][Sar][hPhe(3-Cl-4-CF3)][X52][Ac5c][NMeChg][NMeD]-Piperidide; lactam N-11), the results for the IC50 in test [1] and in test [2] were 6.1 nM and more than 500 nM, respectively.
Consider `CC[C@H](C)[C@@H]1NC(=O)[C@H](C2CCC2)N(C)C(=O)C[C@@H](C(=O)N2C3CCC2COC3)N(C)C(=O)[C@H](C2CCCCC2)N(C)C(=O)C2(CCCC2)NC(=O)[C@@H]2CCCN2C(=O)[C@H](CCc2ccc(C(F)(F)F)c(Cl)c2)NC(=O)CN(C)C(=O)[C@H](Cc2ccc(C)cc2)N(C)C(=O)CN(C)C(=O)CN(C)C1=O` [Compound 353] ([NMeGly(cBu)]I[Sar][Sar][NMePhe(4-Me)][Sar][hPhe(3-Cl-4-CF3)]P[Ac5c][NMeChg][NMeD]-{3Oxa8azabicyclo(3.2.1)octane}; lactam N-11), for which the IC50 is 0.69 nM in test [1] and 50 to 100 nM in test [2].
As to `CC[C@H](C)[C@@H]1NC(=O)[C@H](CC(C)C)N(C)C(=O)C[C@@H](C(=O)N2CCCC2)N(C)C(=O)[C@H](C2CCCCC2)N(C)C(=O)C2(CCCC2)NC(=O)[C@@H]2CCCN2C(=O)[C@H](CCc2ccc(C(F)(F)F)c(Cl)c2)NC(=O)CN(C)C(=O)[C@H](CC2CCCCC2)N(C)C(=O)CN(C)C(=O)CN(C)C1=O` [Compound 1757] ([NMeL]I[Sar][Sar][NMeCha][Sar][hPhe(3-Cl-4-CF3)]P[Ac5c][NMeChg][NMeD]-Pyrrolidide; lactam N-11), the IC50 in test [1] was 0.43 nM; in test [2], 20 to 50 nM.

The values are drawn from US12371454B2, “Cyclic peptide compound having Kras inhibitory action” (priority 2019, dated 2025).
